From patent US20250032569A1, “COMPOSITION, IN PARTICULAR COSMETIC FORMULATION, COMPRISING A VERBASCOSIDE EXTRACT” (MEDENA AG, priority 2021, published 2025)

Legend:
[1] = organic (synthetic) chemical sunscreens, Table 1; cited from earlier work
[2] = In vitro spectrophotometric SPF calculated by the Sayre equation (Eq. 1); assay type: physicochemical
Description: Each sample (1 ml) was placed in a 1 cm quartz cell. The absorbance was measured between 250-600 nm at an interval of every 1 nm using a Varian UV/Vis spectrophotometer (Cary 50 Scan). The following parameters were measured and calculated for each sample assuming standard application to the skin—2 mg/cm^2: • the SPF values. • the critical wavelength λC • the UVA/UVB ratio 1. […]
Each sample (1 ml) was placed in a 1 cm quartz cell. The absorbance was measured between 250-600 nm at an interval of every 1 nm using a Varian UV/Vis spectrophotometer (Cary 50 Scan). The following parameters were measured and calculated for each sample assuming standard application to the skin—2 mg/cm^2: • the SPF values. • the critical wavelength λC • the UVA/UVB ratio
The SPF values in vitro were calculated according to the method described by Sayre et al., (Sayre, R M; Agin, P P; LeVee, G J; Marlowe, E. A comparison of in vivo and in vitro testing of sunscreening formulas, Photochem. Photobiol. 1979, 29, 559-566). The calculation was done using Equation 1: […]
where Ss(λ) is the spectral irradiance, Ser(λ) is the CIE erythema action spectrum and T(λ) is the transmission of the sunscreen. The values of Ss(λ) and Ser(λ) were taken from the literature (B. L. Diffey, J. Robson. A new substrate to measure sunscreen protection factors throughout the ultraviolet spectrum, J. Soc. Cosmet. Chem. 1989, 40, 127-133). […]
SPF values were calculated using Eq. 1 for sun protective cosmetics applied at 2 mg/cm^2 (standard application).
The same methods and equations as in the case of plant extracts were applied.
Solutions of sunscreens at concentrations 0.001% were prepared in duplicate and UV-visible absorption spectra were recorded over the range of 250-600 nm (FIG. 1). On the basis of these spectra, the transmission of the sunscreen (T) was found from monochromatic absorbance values at wavelength λ: T=10^−A(λ).
The SPF in vitro was calculated according to the method described by Sayre et al., (Sayre, R M; Agin, P P; LeVee, G J; Marlowe, E. A comparison of in vivo and in vitro testing of sunscreening formulas, Photochem. Photobiol. 1979, 29, 559-566) following equation 1: […]
where Ss(λ) is the spectral irradiance, Ser(λ) the CIE erythema action spectrum and T(λ) the trans-mission of the sunscreen. Data for Ss(λ) and Ser(λ) are available in the literature (B. L. Diffey, J. Robson. A new substrate to measure sunscreen protection factors throughout the ultraviolet spectrum, J. Soc. Cosmet. Chem. 1989, 40, 127-133).
The SPF values were calculated using Eq 1 with the application conditions 2 mg/cm^2 (Standard application recommended by the European Agency).
The SPF value for lotions were calculated using Eq. 1 for three application conditions at 2 mg/cm^2 (standard application), 2.5 mg/cm^2 and 3 mg/cm^2. In the same Table 22, critical wavelength and the UVA/UVB ratios are shown.

[3] = SPF calculated by modified Sayre method; assay type: physicochemical
Source text: In the following Table 20, there are SPF values obtained in vitro spectrophotometrically, which have been calculated by a classical Sayre method (Sayre, R M; Agin, P P; LeVee, G J; Marlowe, E. A comparison of in vivo and in vitro testing of sunscreening formulas, Photochem. Photobiol. 1979, 29, 559-566) and modified Sayre method, which gives results similar to those obtained in the in vivo tests recommended by COLIPA.
• (1) For water insoluble chemical filters, the modified Sayre method gives results close to those calculated by Simulator-Calculator (BASF) and the in vivo tests. The Simulator-Calculator uses the modified Sayre method assuming an exponentiation equal to 0.827 (X^0.827). • (2) For water soluble natural filters, the same modified Sayre method would give results close to those obtained by the in vivo tests (predicted by Simulator-Calculator). Examples of Cosmetic Compositions with Fully Natural Sun Protective Factors • 1. Sun protective lotion SPF 50+, high UV-A protection • 2. Sun protective cream SPF 50+, high UV-A protection • 3. Sun protective serum for pregnant and milking women SPF 50+, high UV-A protection • 4. Sun protective milk for babies SPF 50+, high UV-A protection • 5. Sun protective lotion SPF 20-30, high UV-A protection for people with highly sensitive skin E. Analysis of Sun Protective Parameters of Two Lotions and Cream Containing Lippia citriodora Extract with 40% of Verbascoside.

[4] = Critical wavelength (λC) from absorption spectra (Eq. 2); assay type: physicochemical; conditions: for critical wavelength: chemical sunscreen, no concentration stated
Description: The Critical Wavelength λC is the wavelength, where the area under the absorbance spectrum for the irradiated product from 290 nm to λC is equal to 90% of the integral value of the absorbance spectrum from 290 to 400 nm and was calculated using Eq. 2:
where A (λ)=monochromatic absorbance values at wavelength λ. The critical wavelength was determined for all samples in order to assess a degree of UVA protection. In cases where the critical wavelength is lower than 370 nm, the protection from UVA is less evident.
The Critical Wavelength λC value for the test product was defined as that wavelength where the area under the absorbance spectrum of the sample from 290 nm to λC is 90% of the integral of the absorbance spectrum from 290 to 400 nm and is calculated using Eq. 2:
[formula] • A(λ)=monochromatic absorbance values at wavelength λ

[5] = UVA/UVB ratio from absorption spectra (Eq. 3) and Boots UVA Star Rating; assay type: physicochemical; conditions: for ratio UVA/UVB: chemical sunscreen, no concentration stated
Description: Critical Wavelength (λC) and the UVA/UVB ratios were also calculated from the absorption spectra and were collected in Table 2. […] According to these International indications, aqueous solutions of Haberlea rhodopensis with different concentrations of myconoside can be attributed to the group of good protection (2 UVA Star Rating).
In order to further characterize solutions as skin photo-protectors from UVA, the UVA/UVB ratio was calculated using Eq. 3: […]
In order to characterize the ability of creams to protect skin against UVA the UVA/UVB ratio was calculated using Eq. 3: […]

[6] = chemical UV filter 0.5% in sun protective solution
[7] = chemical UV filter 1% in sun protective solution
[8] = chemical UV filter 2.5% in sun protective solution
[9] = chemical UV filter 5% in sun protective solution
[10] = chemical UV filter 10% in sun protective solution
[11] = UV filter 0.5% in sun protective cosmetic (Table 20)
[12] = UV filter 1.0% in sun protective cosmetic (Table 20)
[13] = UV filter 2.5% in sun protective cosmetic (Table 20)
[14] = UV filter 5% in sun protective cosmetic (Table 20)
[15] = UV filter 10% in sun protective cosmetic (Table 20)
[16] = chemical UV filter 0.5% in sun protective solution (Tables 12-19)
[17] = chemical UV filter 1% in sun protective solution (Tables 12-19)
[18] = chemical UV filter 2.5% in sun protective solution (Tables 12-19)
[19] = chemical UV filter 5% in sun protective solution (Tables 12-19)
[20] = chemical UV filter 10% in sun protective solution (Tables 12-19)
[21] = UV filter 0.5% in sun protective cosmetic
[22] = UV filter 1.0% in sun protective cosmetic
[23] = UV filter 2.5% in sun protective cosmetic
[24] = UV filter 5% in sun protective cosmetic
[25] = UV filter 10% in sun protective cosmetic

Critical wavelength (λC) [4, 6] [nm]	Critical wavelength (λC) [4, 7] [nm]	Critical wavelength (λC) [4, 8] [nm]	Critical wavelength (λC) [4, 9] [nm]	Critical wavelength (λC) [4, 10] [nm]	critical wavelength [4] [nm]	SMILES	Absorbs UV-A [1]	SPF values calculated by the Sayre equation [2, 11]	SPF values calculated by the Sayre equation [2, 12]	SPF values calculated by the Sayre equation [2, 13]	SPF values calculated by the Sayre equation [2, 14]	SPF values [2, 16]	SPF values [2, 17]	SPF values [2, 18]	SPF values [2, 19]	SPF values [2, 20]	SPF values calculated by Modified Sayre [3, 21]	SPF values calculated by Modified Sayre [3, 22]	SPF values calculated by Modified Sayre [3, 23]	SPF values calculated by Modified Sayre [3, 24]	other results
						CC1(C)C2CCC1(CS(=O)(=O)O)C(=O)C2=Cc1ccc(C=C2C(=O)C3(CS(=O)(=O)O)CCC2C3(C)C)cc1 [Mexoryl SX]	UV-A														
						Cc1cc(CC(C)C[Si](C)(O[Si](C)(C)C)O[Si](C)(C)C)c(O)c(-n2nc3ccccc3n2)c1 (stereo not shown) [Mexoryl XL]	UV-A														Absorbs UV-B [1]: UV-B
						O=S(=O)([O-])c1cc(S(=O)(=O)O)cc2[nH]c(-c3ccc(-c4nc5c(S(=O)(=O)[O-])cc(S(=O)(=O)O)cc5[nH]4)cc3)nc12.[Na+].[Na+] [Neoheliopan AP]	UV-A														
						C[C@@H]1O[C@@H](O[C@@H]2[C@@H](O)[C@H](OCCc3ccc(O)c(O)c3)O[C@H](CO)[C@H]2OC(=O)/C=C/c2ccc(O)c(O)c2)[C@H](O)[C@H](O)[C@H]1O [Verbascoside, β-(3′,4′-dihydroxyphenyl)ethyl-O-α-L-rhamnopyranosyl (1->3)-β-D-(4-O-caffeoyl)-glucopyranoside]															SPF values calculated by the Sayre equation ([2]; verbascoside or its analogues from plant extracts 1.0% in sun protective cosmetic (Table 20)): 3.9; SPF values calculated by the Sayre equation ([2]; verbascoside or its analogues from plant extracts 2.5% in sun protective cosmetic (Table 20)): 23; SPF values calculated by the Sayre equation ([2]; verbascoside or its analogues from plant extracts 5% in sun protective cosmetic (Table 20)): 110; SPF values calculated by the Sayre equation ([2]; verbascoside or its analogues from plant/plant cell culture extracts 0.5% in sun protective cosmetic (Table 20)): 2.0; SPF values calculated by Modified Sayre ([3]; verbascoside or its analogues from plant extracts 0.5% in sun protective cosmetic, SPF = a*X^0.827): 2.2; SPF values calculated by Modified Sayre ([3]; verbascoside or its analogues from plant extracts 1.0% in sun protective cosmetic): 3.9; SPF values calculated by Modified Sayre ([3]; verbascoside or its analogues from plant extracts 2.5% in sun protective cosmetic): 8.3; SPF values calculated by Modified Sayre ([3]; verbascoside or its analogues from plant extracts 5% in sun protective cosmetic): 14.8; SPF values calculated by Modified Sayre ([3]; verbascoside or its analogues from plant extracts 8% in sun protective cosmetic): 22; SPF values calculated by Modified Sayre ([3]; verbascoside or its analogues from plant extracts 10% in sun protective cosmetic): 26; SPF values calculated by Modified Sayre ([3]; verbascoside or its analogues from plant extracts 12% in sun protective cosmetic): 31; SPF values calculated by Modified Sayre ([3]; verbascoside or its analogues from plant extracts 20% in sun protective cosmetic): 52
337	337	337	337	337	337	CCCCC(CC)COC(=O)c1ccc(Nc2nc(Nc3ccc(C(=O)NC(C)(C)C)cc3)nc(Nc3ccc(C(=O)OCC(CC)CCCC)cc3)n2)cc1 (stereo not shown) [diethylhexyl butamido triazone, Diethylhexyl butamido triazone]		3.2	9.0	39	98	4.1	10	23	44	131	3.2	4.6	7.4	10.6	SPF values calculated by the Sayre equation [2, 15]: 394; SPF values ([2]; chemical UV filter 10% in sun protective solution (Tables 12-19), listed as ethylhexyl butamido triazone): 137; SPF values calculated by Modified Sayre [3, 25]: 15.3
341	341	341	341	341	341	CCCCC(CC)COC(=O)c1ccc(Nc2nc(Nc3ccc(C(=O)OCC(CC)CCCC)cc3)nc(Nc3ccc(C(=O)OCC(CC)CCCC)cc3)n2)cc1 (stereo not shown) [ethylhexyl triazone, Ethylhexyl triazone]		2.8	8	69	389	5.2	14	33	74	271	2.8	4.1	6.8	10.1	UVA/UVB [5, 6]: 0.21; UVA/UVB [5, 7]: 0.21; UVA/UVB [5, 8]: 0.21; UVA/UVB [5, 9]: 0.21; UVA/UVB [5, 10]: 0.21; ratio UVA/UVB [5]: 0.21; SPF values ([2]; chemical UV filter 2.5% in sun protective solution (Tables 12-19), listed as ethyl hexyl triazone): 44
342	342	342	342	342	342	CCCCC(CC)COC(=O)C(C#N)=C(c1ccccc1)c1ccccc1 (stereo not shown) [octocrylene, Octocrylene]		1.9	4	13	26.5	10	25	42	61	90	1.6	2.6	4.7	7.4	UVA/UVB [5, 6]: 0.22; UVA/UVB [5, 7]: 0.22; UVA/UVB [5, 8]: 0.22; UVA/UVB [5, 9]: 0.22; UVA/UVB [5, 10]: 0.22; ratio UVA/UVB [5]: 0.22; SPF values calculated by the Sayre equation [2, 15]: 36.8; SPF values calculated by Modified Sayre [3, 25]: 11.7
